Experimental data published in the supplement of paper PMC8253809.

What was measured:
DIPGX37 [1] = H3.3 K27M diffuse intrinsic pontine glioma line; assay: EC50 (inflection of fitted growth-inhibition curve) (log10 M)
How it was run: (§1)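 Patient-derived pHGG/DIPG cell lines and astrocyte controls were grown on 1% Geltrex-coated 384-well plates and exposed by pin tool to a 10-point threefold dilution series (mean top concentration 35 μM), in triplicate. Exposure was 7 days (iAstro 3 days) at 37 °C, 5% CO2. CellTiter-Glo luminescence was log2-transformed, normalised per plate to % activity between negative (solvent) and positive control wells, and pooled. EC50 and maximal response (yFin) come from the lowest-AICc three- or four-parameter log-logistic fit.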

HGGX39 [2] = paediatric high-grade glioma line; assay: as above
How it was run: as §1

HGGX6 [3] = H3.3 G34R paediatric high-grade glioma line; assay: as above
How it was run: as §1

DIPGX37 [4] = assay: maximal growth inhibition (yFin) relative to DMSO / staurosporine; higher = more efficacious
How it was run: as §1

HGGX39 [5] = assay: as above
How it was run: as §1

HGGX6 [6] = assay: as above
How it was run: as §1

DIPGX29 [7] = H3.3 K27M diffuse intrinsic pontine glioma line; assay: area under dose-response curve of % growth inhibition (log2 RLU vs DMSO / staurosporine), 1e-11 to 1e-4 M (% x log10 M); higher = more growth inhibition
How it was run: (§2)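 On 1% Geltrex-coated 384-well plates, patient-derived pHGG/DIPG cell lines and astrocytes were treated in triplicate across 10 threefold dilutions (mean top concentration 35 μM) for 7 days, with iAstro treated for 3 days, at 37 °C, 5% CO2. Log2-transformed CellTiter-Glo luminescence was normalised per plate to % activity between solvent and positive controls. Area under the curve was obtained by the trapezoid rule from a log-logistic fit, or from a smoothing spline when that fit failed.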

DIPGX37 [8] = assay: as above
How it was run: as §2

HGGX39 [9] = assay: as above
How it was run: as §2

HGGX6 [10] = assay: as above
How it was run: as §2

DIPGX29 [11] = assay: EC50 (inflection of fitted growth-inhibition curve) (log10 M)
How it was run: as §1

DIPGX29 [12] = assay: maximal growth inhibition (yFin) relative to DMSO / staurosporine; higher = more efficacious
How it was run: as §1

**Q.** How did the “EC50 (log10 M)” value (DIPGX37 [1]) turn out when CC[C@H](C)C(=O)O[C@H]1C[C@@H](C)C=C2C=C[C@H](C)[C@H](CC[C@@H]3C[C@@H](O)CC(=O)O3)[C@H]21 [LOVASTATIN] was run?
**A.** -5.76

**Q.** What about the “EC50 (log10 M)” value (HGGX39 [2]) of the same molecule?
**A.** -5.37

**Q.** And the “EC50 (log10 M)” value (HGGX6 [3])?
**A.** -5.49

**Q.** And the maximal growth inhibition (DIPGX37 [4])?
**A.** 23.7%

**Q.** And the maximal growth inhibition (HGGX39 [5])?
**A.** 68%

**Q.** What about the maximal growth inhibition (HGGX6 [6]) of the same molecule?
**A.** 21.5%

**Q.** And the “area under dose-response curve” value (DIPGX29 [7])?
**A.** 29.8

**Q.** What about the “area under dose-response curve” value (DIPGX37 [8]) of the same molecule?
**A.** 36.7

**Q.** And the “area under dose-response curve” value (HGGX39 [9])?
**A.** 94.8

**Q.** What about the “area under dose-response curve” value (HGGX6 [10]) of the same molecule?
**A.** 29.1

**Q.** Which results are given for S=c1[nH]cnc2nc[nH]c12 [MERCAPTOPURINE]?
**A.** EC50 (log10 M) (DIPGX29 [11]): -6.35; EC50 (log10 M) (HGGX6 [3]): -5.3; maximal growth inhibition (DIPGX29 [12]): 20.5%; maximal growth inhibition (HGGX6 [6]): 21.1%; area under dose-response curve (DIPGX29 [7]): 44.1; area under dose-response curve (DIPGX37 [8]): 38; area under dose-response curve (HGGX39 [9]): 28; area under dose-response curve (HGGX6 [10]): 25.5

**Q.** For CN(C)CCCNC(=O)c1ccc(-c2cc(O)c3ncccc3c2)cc1 [ML324], which “EC50 (log10 M)” value (DIPGX29 [11]) is on record?
**A.** -4.82

**Q.** And the “EC50 (log10 M)” value (HGGX6 [3])?
**A.** -4.67

**Q.** And the maximal growth inhibition (DIPGX29 [12])?
**A.** 43.7%

**Q.** What about the maximal growth inhibition (HGGX6 [6]) of the same molecule?
**A.** 44.1%

**Q.** And the “area under dose-response curve” value (DIPGX29 [7])?
**A.** 35.8

**Q.** What about the “area under dose-response curve” value (DIPGX37 [8]) of the same molecule?
**A.** 4.39

**Q.** What about the “area under dose-response curve” value (HGGX39 [9]) of the same molecule?
**A.** 14.9

**Q.** What about the “area under dose-response curve” value (HGGX6 [10]) of the same molecule?
**A.** 29.4

**Q.** What does the source list for CCC(CC)(NC(=O)C(C)C)C(=O)N[C@@H](CCCN=C(N)N)C(=O)NC1(C(=O)NC(c2ccc(F)cc2)c2ccc(F)cc2)CCCC1 [MM-102]?
**A.** EC50 (log10 M) (DIPGX29 [11]): -5.17; EC50 (log10 M) (HGGX6 [3]): -5.03; maximal growth inhibition (DIPGX29 [12]): 33.9%; maximal growth inhibition (HGGX6 [6]): 63.5%; area under dose-response curve (DIPGX29 [7]): 39.7; area under dose-response curve (DIPGX37 [8]): 6.41; area under dose-response curve (HGGX39 [9]): 12.2; area under dose-response curve (HGGX6 [10]): 65.5

**Q.** Which “EC50 (log10 M)” value (HGGX39 [2]) does the source give for CCCCOc1cc(C(=O)OCCN(CC)CC)ccc1N [OXYBUPROCAINE] here?
**A.** -4.97

**Q.** What about the “EC50 (log10 M)” value (HGGX6 [3]) of the same molecule?
**A.** -5.11

**Q.** And the maximal growth inhibition (HGGX39 [5])?
**A.** 67.2%

**Q.** And the maximal growth inhibition (HGGX6 [6])?
**A.** 26.6%

**Q.** And the “area under dose-response curve” value (DIPGX29 [7])?
**A.** 11.5

**Q.** What about the “area under dose-response curve” value (DIPGX37 [8]) of the same molecule?
**A.** 16.5

**Q.** What about the “area under dose-response curve” value (HGGX39 [9]) of the same molecule?
**A.** 65.7

**Q.** And the “area under dose-response curve” value (HGGX6 [10])?
**A.** 29.7

**Q.** With C#CCC(Cc1cnc2nc(N)nc(N)c2n1)c1ccc(C(=O)N[C@@H](CCC(=O)O)C(=O)O)cc1 (stereo partly specified) [PRALATREXATE] as the molecule, how does the “EC50 (log10 M)” value (HGGX39 [2]) read?
**A.** -8.55

**Q.** What about the “EC50 (log10 M)” value (HGGX6 [3]) of the same molecule?
**A.** -7.84

**Q.** And the maximal growth inhibition (HGGX39 [5])?
**A.** 25.5%

**Q.** And the maximal growth inhibition (HGGX6 [6])?
**A.** 22.1%

**Q.** And the “area under dose-response curve” value (DIPGX29 [7])?
**A.** 66.7

**Q.** What about the “area under dose-response curve” value (DIPGX37 [8]) of the same molecule?
**A.** 73

**Q.** And the “area under dose-response curve” value (HGGX39 [9])?
**A.** 116

**Q.** What about the “area under dose-response curve” value (HGGX6 [10]) of the same molecule?
**A.** 83.2

**Q.** CCCCOc1ccc(OCCCN2CCOCC2)cc1 [PRAMOXINE] was tested. Which “EC50 (log10 M)” value (DIPGX37 [1]) did it give?
**A.** -4.83

**Q.** And the “EC50 (log10 M)” value (HGGX39 [2])?
**A.** -4.82

**Q.** What about the “EC50 (log10 M)” value (HGGX6 [3]) of the same molecule?
**A.** -4.97

**Q.** And the maximal growth inhibition (DIPGX37 [4])?
**A.** 55.5%

**Q.** What about the maximal growth inhibition (HGGX39 [5]) of the same molecule?
**A.** 77%

**Q.** What about the maximal growth inhibition (HGGX6 [6]) of the same molecule?
**A.** 23.9%

**Q.** What about the “area under dose-response curve” value (DIPGX29 [7]) of the same molecule?
**A.** 17.3

**Q.** What about the “area under dose-response curve” value (DIPGX37 [8]) of the same molecule?
**A.** 46.2

**Q.** What about the “area under dose-response curve” value (HGGX39 [9]) of the same molecule?
**A.** 70.5

**Q.** And the “area under dose-response curve” value (HGGX6 [10])?
**A.** 23.2

**Q.** Which results are given for CC(C)c1nc(N(C)S(C)(=O)=O)nc(-c2ccc(F)cc2)c1/C=C/[C@@H](O)C[C@@H](O)CC(=O)O [ROSUVASTATIN]?
**A.** EC50 (log10 M) (DIPGX37 [1]): -5.85; EC50 (log10 M) (HGGX39 [2]): -5.45; EC50 (log10 M) (HGGX6 [3]): -5.54; maximal growth inhibition (DIPGX37 [4]): 22.7%; maximal growth inhibition (HGGX39 [5]): 61.4%; maximal growth inhibition (HGGX6 [6]): 21.2%; area under dose-response curve (DIPGX29 [7]): 25.2; area under dose-response curve (DIPGX37 [8]): 37.5; area under dose-response curve (HGGX39 [9]): 83.4; area under dose-response curve (HGGX6 [10]): 30.4

**Q.** Which results are given for N#CC[C@H](C1CCCC1)n1cc(-c2ncnc3[nH]ccc23)cn1 [RUXOLITINIB]?
**A.** EC50 (log10 M) (HGGX39 [2]): -5.58; EC50 (log10 M) (HGGX6 [3]): -5.22; maximal growth inhibition (HGGX39 [5]): 27.7%; maximal growth inhibition (HGGX6 [6]): 21.7%; area under dose-response curve (DIPGX29 [7]): 24.4; area under dose-response curve (DIPGX37 [8]): 44.2; area under dose-response curve (HGGX39 [9]): 44.9; area under dose-response curve (HGGX6 [10]): 28.9

**Q.** How did the “EC50 (log10 M)” value (HGGX39 [2]) turn out when O=C(/C=C\n1cnc(-c2cc(C(F)(F)F)cc(C(F)(F)F)c2)n1)NNc1cnccn1 [SELINEXOR] was run?
**A.** -6.06

**Q.** What about the “EC50 (log10 M)” value (HGGX6 [3]) of the same molecule?
**A.** -5.23

**Q.** What about the maximal growth inhibition (HGGX39 [5]) of the same molecule?
**A.** 96.2%

**Q.** And the maximal growth inhibition (HGGX6 [6])?
**A.** 101%

**Q.** What about the “area under dose-response curve” value (DIPGX29 [7]) of the same molecule?
**A.** 144

**Q.** What about the “area under dose-response curve” value (DIPGX37 [8]) of the same molecule?
**A.** 169

**Q.** What about the “area under dose-response curve” value (HGGX39 [9]) of the same molecule?
**A.** 195

**Q.** What about the “area under dose-response curve” value (HGGX6 [10]) of the same molecule?
**A.** 205
